How the values were obtained:
mouse DRG neurons = test: Patch clamp rheobase of DRG neurons: protease-induced hyperexcitability of nociceptors; format: cell-based; details: for basal excitability of DRG neurons / initial hyperexcitability (0 min) caused by trypsin, NE or CS / persistent effects (30 min) of NE or CS on rheobase / persistent effects (30 min) of trypsin on rheobase: Dy4 30 μM, PS2 15 μM; for rheobase after protease: trypsin 50 nM 10 min, NE 390 nM 30 min, CS 500 nM 60 min, thrombin 50 nM 20 min, washed
colonic afferent neurons = test: Colonic afferent recordings, healthy mice; set-up: species or system mouse; details: for basal mechanical sensitivity of colonic afferents / trypsin-induced sensitization of mechanical responses: I-343 10 μM, PS2 or PS2 inact 50 μM; for amplification of frequency of firing to mechanical stimulation: healthy mice, 2 g filament, trypsin 10 nM, NE 100 nM, CS 100 nM, 10 min
Text: To examine whether proteases cleave PAR2 on the peripheral terminals of colonic nociceptors to induce mechanical hypersensitivity, single unit recordings from afferent neurons innervating the mouse colon were made. Receptive fields were identified by mechanical stimulation of the mucosal surface with von Frey filaments, proteases were applied to the mucosal receptive fields, and mechanical responses were re-evaluated to assess sensitization. Under basal conditions, repeated mechanical stimulation (2 g filament) induced reproducible firing (FIG. 9A). […] The results support the hypothesis that PAR2 endocytosis is required trypsin-induced sensitization of colonic afferent neurons. The colon and rectum (5-6 cm) was removed from C57BL/6 mice. Afferent recordings were made from splanchnic nerves as described (Hughes, P. A. et al., Gut 2009, 58(10): 1333-134; Brierley, S. M. et al., Gastroenterology 2004, 127(1): 166-178). Briefly, the intestine was opened and pinned flat, mucosal side up, in an organ bath. […] The splanchnic nerve was extended into a paraffin-filled recording compartment, in which finely dissected strands were laid onto a platinum electrode for single-unit extracellular recordings of action potentials generated by mechanical stimulation of receptive fields in the colon. Receptive fields were identified by mechanical stimulation of the mucosal surface with a brush of sufficient stiffness to activate all types of mechanosensitive afferents. […] These neurons express an array of channels and receptors involved in pain, become mechanically hypersensitive in models of chronic visceral pain, and have a nociceptor phenotype. They are therefore referred to as “colonic nociceptors”. […] Proteases were applied to a metal cylinder placed over the receptive mucosal field of interest. […] Action potentials were analyzed using the Spike 2 […] function and discriminated as single units on the basis of distinguishable waveform, amplitude and duration.

mice = test: Somatic mechanical nociception, von Frey filaments after intraplantar injection; format: in vivo, mouse; details: for NE- and CS-induced allodynia / trypsin-induced mechanical allodynia: inhibitor 50 μM, 10 μl intraplantar; for NE- and CS-induced allodynia: 30 min before NE (1.2 μM) or CS (2.5 μM); for trypsin-induced mechanical allodynia: 30 min before trypsin (10 nM), at 1 and 2 h; for mechanical allodynia after intraplantar protease: WT mice, 10 μl trypsin (80 nM), NE (3.9 μM) or CS (5 μM), within 30 min, maintained for 180 min
Protocol: After 30 min, trypsin (10 nM), NE (1.2 μM), or CS (2.5 μM) (10 μl) was injected into the same paw.
Mice were acclimatized to the experimental apparatus, room and investigator for 1-2 h on 2 successive days before studies. Investigators were blinded to the test agents. Mice were sedated (5% isoflurane) for intraplantar injections. Dy4a, Dy4 inact, PS2, PS2 inact (all 50 μM) or vehicle (0.2% DMSO in 0.9% NaCl) (10 μl) was injected into the left hindpaw. After 30 min, trypsin (10 or 80 nM), CS (2.5 or 5 μM) or NE (1.2 or 3.9 μM) (all 10 μl) was injected into the same hindpaw. Mechanical nociceptive responses were evaluated by examining paw withdrawal to stimulation of the plantar surface of the hind-paw with calibrated von Frey filaments. von Frey scores were measured in triplicate to establish a baseline for each animal on the day before experiments, and were then measured for up to 4 h after protease administration. To assess edema, paw thickness was measured at the site of injection between the plantar and the dorsal surfaces of the paw using digital calipers. For evaluation of neutrophil infiltration, paws were collected at 4 h after intraplantar injection of trypsin (10 μl, 80 nM) or vehicle, fixed in 10% neutral buffered formalin for 48-72 h, bisected, and fixed in formalin for an additional 12 h. Tissue was decalcified in 10% 0.5 M EDTA for 6 days, washed in water, transferred to 70% ethanol for 24 h, and embedded in paraffin. Sections (5 μm) were incubated with neutrophil antibody Ly6G/6C clone NIMP-R14 (Abcam #ab2557, Lot #GR135037-1, AB_303154, 1:800, room temperature, 12 h). Sections were processed for chromogenic immunohistochemistry on a Ventana Medical Systems Discovery XT platform with online deparaffinization using Ventana's reagents. Ly6G/Ly6c was enzymatically treated with protease-3 (Ventana Medical Systems) for 8 min. Ly6G/Ly6c was detected with goat anti-rat horseradish peroxidase conjugated multimer incubated for 16 min.

| Compound | basal mechanical sensitivity of colonic afferents (colonic afferent neurons) | trypsin-induced sensitization of mechanical responses (colonic afferent neurons) | NE- and CS-induced allodynia (mice) | trypsin-induced mechanical allodynia (mice) | basal excitability of DRG neurons (mouse DRG neurons) | initial hyperexcitability (0 min) caused by trypsin, NE or CS (mouse DRG neurons) | persistent effects (30 min) of NE or CS on rheobase (mouse DRG neurons) | persistent effects (30 min) of trypsin on rheobase (mouse DRG neurons) | mechanical allodynia after intraplantar protease (mice) | rheobase after protease (mouse DRG neurons) | amplification of frequency of firing to mechanical stimulation (colonic afferent neurons) [%] | further results |
| --- | --- | --- | --- | --- | --- | --- | --- | --- | --- | --- | --- | --- |
| Cc1nc(C(=O)N2CCN(C(=O)c3cn4nc(-c5ccc(F)cc5)cc(C(C)(C)C)c4n3)C(C)(C)C2)n[nH]1 [Compound I-343, (8-(tert-butyl)-6-(4-fluorophenyl)imidazo[1,2-b]pyridazin-2-yl)(2,2-dimethyl-4-(5-methyl-1H-1,2,4-triazole-3-carbonyl)piperazin-1-yl)methanone] | did not affect | abolished |  |  |  |  |  |  |  |  |  | decrease in rheobase 0 min after NE (mouse DRG neurons): prevented; decrease in rheobase 0 min after trypsin (mouse DRG neurons; 100 nM, 300 nM): prevented; decrease in rheobase 30 min after CS (mouse DRG neurons; 10 μM): prevented; decrease in rheobase 30 min after NE (mouse DRG neurons; 10 μM): not; decrease in rheobase 30 min after trypsin (mouse DRG neurons; 10 μM): prevented |
| O=C(N/N=C/c1cc(O)c(O)cc1O)c1cc2ccccc2cc1O [Dy4] |  |  | unchanged or minimally affected | inhibited | did not affect | did not affect | not | abolished |  |  |  |  |
| O=C1NC(=NS(=O)(=O)c2cccc3ccccc23)S/C1=C\c1ccc(Br)cc1 [PS2] | did not affect | abolished | unchanged or minimally affected | inhibited | did not affect | did not affect | not | abolished |  |  |  |  |
| NE: protease (elastase) activating PAR2 by biased mechanisms |  |  |  |  |  |  |  |  | induced mechanical allodynia | decreased rheobase at 0 and 30 min | 41.0±11.8 |  |
| trypsin |  |  |  |  |  |  |  |  | induced mechanical allodynia | decreased rheobase at 0 and 30 min | 35.8±5.9 |  |
